Source: PMC7967119, “Design and Synthesis of Non-Covalent Imidazo[1,2-a]quinoxaline-Based Inhibitors of EGFR and Their Anti-Cancer Assessment” (Molecules, 2021)
Like-named read-outs stand apart in the source and are kept apart here. Each block holds one compound with its values, some of them ahead of it.

Tests used:
EGFR^WT = EGFR^WT (Homo sapiens, UniProt P00533); test: EGFR inhibitory assay (Z-lyte kinase assay kit, Tyr 4 peptide, FRET-based); assay type: biochemical
Protocol: The test compounds were analyzed for EGFR inhibitory potential using z-lyte kinase assay kit–tyr 4 peptide assay kit (catalogue no. PV3193; Thermofisher, Mumbai, Maharashtra, India). The assay biochemically is FRET-based, which involves coupled enzyme format that relies on differential sensitivity of proteolytic cleavage of phosphorylated and non-phosphorylated peptides. The reaction proceeds in two steps, first involving the kinase reaction that is concerned with the transfer of phosphate group from ATP to single tyrosine residue, followed by development reaction, which involves site-protease role and cleaves non-phosphorylated peptide, allowing the disruption of FRET between donor and acceptor end of phosphorylated peptide, which facilitates deducing the emission ratio. The assay was performed per manufacturer protocol and per our published reports. […] Next, the assay master mix was prepared under ice-cold conditions by thawing and mixing kinase buffer (133 µL), kinase peptides (0.5 µL), phosphopeptide (0.5 µL) along with ATP (0.5 µL) solution. The master mix was added to testing compounds and further incubated for 1 h at room temperature and allowed the kinase reaction followed by development reaction to occur. After the stipulated period, reaction was stopped by addition of 5 µL stop solution to each reaction mixture.
The extent of phosphorylation was calculated by the following formula (Equation (1)):(1) % phosphorylation =1− (Emission ratio× F100%)− C100%/(C0%−C100%) + [Emission ratio (F100%−F0%)] where C0% = Average coumarin emission signal of the […]; F100% = Average Fluorescein emission signal of the 100% Phos. Control; F0% = Average Fluorescein emission signal of the 0% Phos. Control.

A549 cells = test: Flow cytometric PI cell cycle analysis in A549; assay type: cell-based, human; settings: A549, sub-IC50 concentration, 48 h
Protocol: The assays were performed following our previous published reports. Briefly, A549 cells were cultured in 100 mm dishes and maintained to attain at least 80% confluency. […] After the stipulated period, the remaining media were collected along with the cells (trypsinization) and were centrifuged (1200 rpm for 5 min) and washed two times using 1X PBS. Furthermore, the cells were raised to the concentration of 400 µL and were equally divided (5 × 10^4) in four aliquots. The first three aliquots were added with H2DCFDA (10 µM/100 µL), JC-1 dye (1 mM/mL) and Annexin V and PI (as per manufacturer protocol (Thermo Fisher: V13242, Maharashtra, India) to analyze detection of alteration in ROS, ∆ψm and mode of cell death, respectively. The cancer cells were incubated in the dark for 30 min at rt before analysis. Next, the fourth aliquot cells were fixed using chilled ethanol (70%) and incubated at −20 °C for 4 h to allow fixing. After 4 h, cells were centrifuged (2200 rpm for 10 min) and washed twice with 1X PBS. Furthermore, the cells were treated with RNase and PI was added and they were further incubated for 30 min in the dark before analysis. All the samples were analyzed using BD C6 flow cytometer using various FL channels.

MCF-7 (breast) cells = test: H2DCFDA assay of ROS in MCF-7; assay type: cell-based; settings: sub-IC50 concentration, 48 h
MDA-MB-231 cells = test: H2DCFDA assay of ROS in MDA-MB-231; assay type: cell-based, human; settings: sub-IC50 concentration, 48 h
[1] = test system: HCT-116 WT (colon cancer) cells; test: MTT antiproliferative assay, HCT-116 WT; settings: Homo sapiens, HCT-116, 48 h, read-out: IC50 (μM) ± SEM, HCT-116 WT (Colon Cancer)
[2] = test system: MDA-MB-231 (breast cancer) cells; test: MTT antiproliferative assay, MDA-MB-231; settings: Homo sapiens, MDA-MB-231, 48 h, read-out: IC50 (μM) ± SEM, MDA-MB-231 (Breast Cancer)
[3] = test system: A549 (lung cancer) cells harboring EGFR^WT; test: MTT antiproliferative assay, A549; settings: Homo sapiens, A549, 48 h, read-out: IC50 (μM) ± SEM, A549 (Lung Cancer)
[4] = EGFR wild type, tested at 100, 250, 500 and 720 nM, triplicate, read-out: EGFR Inhibition IC50 (nM) ± SEM

EGFR^WT, sequence (P00533 25-1210): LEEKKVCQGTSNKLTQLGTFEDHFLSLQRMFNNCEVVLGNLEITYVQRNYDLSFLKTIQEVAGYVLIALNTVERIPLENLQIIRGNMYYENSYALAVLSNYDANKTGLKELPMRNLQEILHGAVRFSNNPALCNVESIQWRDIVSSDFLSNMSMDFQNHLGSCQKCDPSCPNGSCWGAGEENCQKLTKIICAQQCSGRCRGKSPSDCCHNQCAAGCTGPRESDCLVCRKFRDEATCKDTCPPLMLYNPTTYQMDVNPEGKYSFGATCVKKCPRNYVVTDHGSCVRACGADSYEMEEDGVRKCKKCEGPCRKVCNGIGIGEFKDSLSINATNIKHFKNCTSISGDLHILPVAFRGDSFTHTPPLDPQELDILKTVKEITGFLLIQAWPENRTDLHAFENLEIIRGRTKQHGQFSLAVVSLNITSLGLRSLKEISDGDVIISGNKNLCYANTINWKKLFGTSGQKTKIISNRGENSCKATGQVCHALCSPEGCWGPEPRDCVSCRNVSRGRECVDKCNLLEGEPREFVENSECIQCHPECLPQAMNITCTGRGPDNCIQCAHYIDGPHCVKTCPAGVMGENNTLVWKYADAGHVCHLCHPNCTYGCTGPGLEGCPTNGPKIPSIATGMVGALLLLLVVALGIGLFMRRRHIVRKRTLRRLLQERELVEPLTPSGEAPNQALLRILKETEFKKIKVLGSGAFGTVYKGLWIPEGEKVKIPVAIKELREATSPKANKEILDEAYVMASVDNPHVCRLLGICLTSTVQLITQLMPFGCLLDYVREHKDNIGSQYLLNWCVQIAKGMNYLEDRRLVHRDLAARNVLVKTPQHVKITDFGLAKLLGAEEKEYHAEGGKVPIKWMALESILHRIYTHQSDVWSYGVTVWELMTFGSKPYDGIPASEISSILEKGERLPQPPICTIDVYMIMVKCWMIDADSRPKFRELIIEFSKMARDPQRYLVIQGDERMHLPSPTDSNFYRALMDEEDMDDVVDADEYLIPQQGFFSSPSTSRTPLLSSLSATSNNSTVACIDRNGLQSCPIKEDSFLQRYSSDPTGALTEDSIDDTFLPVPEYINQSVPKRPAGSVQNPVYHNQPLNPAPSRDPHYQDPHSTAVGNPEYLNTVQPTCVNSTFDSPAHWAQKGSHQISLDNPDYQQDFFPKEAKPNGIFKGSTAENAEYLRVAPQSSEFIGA

SMILES: COc1cc(-c2nc3ccccc3n3c(N)c(C#N)nc23)cc(OC)c1OC [Compound 5a]
EGFR^WT inhibitory activity in words (EGFR^WT; EGFR wild type): poorly active or possessed no activity at all | IC50 (EGFR^WT; [4]): > 720 nM

SMILES: N#Cc1nc2c(-c3cccc([N+](=O)[O-])c3)nc3ccccc3n2c1N [Compound 5b]
IC50 (EGFR^WT; [4]): 244.45 ± 0.032 nM

SMILES: CN(C)c1ccc(-c2nc3ccccc3n3c(N)c(C#N)nc23)cc1 [Compound 5c, 1-Amino-4-(4-(dimethylamino)phenyl)imidazo[1,2-a]quinoxaline-2-carbonitrile]
EGFR^WT inhibitory activity in words (EGFR^WT; EGFR wild type): poorly active or possessed no activity at all | IC50 (EGFR^WT; [4]): > 720 nM | melting point: 169 to 171 °C

SMILES: CC(C)c1ccc(-c2nc3ccccc3n3c(N)c(C#N)nc23)cc1 [Compound 5d, 1-Amino-4-(4-isopropylphenyl)imidazo[1,2-a]quinoxaline-2-carbonitrile]
EGFR^WT inhibitory activity in words (EGFR^WT; EGFR wild type): poorly active or possessed no activity at all | IC50 (EGFR^WT; [4]): > 720 nM | melting point: 166 to 168 °C

SMILES: COc1ccc(OC)c(/C=N/c2c(C#N)nc3c(-c4cc(OC)ccc4OC)nc4ccccc4n23)c1 [Compound 6a]
IC50 (EGFR^WT; [4]): 429.81 ± 0.018 nM

SMILES: COc1cc(/C=N/c2c(C#N)nc3c(-c4cc(OC)c(OC)c(OC)c4)nc4ccccc4n23)cc(OC)c1OC [Compound 6b, (E)-1-((3,4,5-Trimethoxybenzylidene)amino)-4-(3,4,5-trimethoxyphenyl)imidazo[1,2-a]quinoxaline-2-carbonitrile]
IC50 (EGFR^WT; [4]): 211.22 ± 0.027 nM | Cell cycle analysis G1 (%) (A549 cells): 34.51% | Percentage decrease in ROS, MCF-7 (MCF-7 (breast) cells): marginal | Percentage decrease in ROS, MDA-MB-231 (MDA-MB-231 cells): marginal | IC50 [1]: 5.1 ± 0.029 µM | IC50 [2]: 4.1 ± 0.031 µM

SMILES: COc1ccc(/C=N/c2c(C#N)nc3c(-c4ccc(OC)c(OC)c4)nc4ccccc4n23)cc1OC [Compound 6c, (E)-1-((3,4-Dimethoxybenzylidene)amino)-4-(3,4-dimethoxy-phenyl)imidazo[1,2-a]quinoxaline-2-carbonitrile]
EGFR^WT inhibitory activity in words (EGFR^WT; EGFR wild type): poorly active or possessed no activity at all | IC50 (EGFR^WT; [4]): > 720 nM | melting point: 170 to 172 °C

SMILES: N#Cc1nc2c(-c3ccc(Cl)cc3)nc3ccccc3n2c1/N=C/c1ccc(Cl)cc1 [Compound 6d]
EGFR^WT inhibitory activity in words (EGFR^WT; EGFR wild type): poorly active or possessed no activity at all | IC50 (EGFR^WT; [4]): > 720 nM

SMILES: N#Cc1nc2n(c1/N=C/c1ccc([N+](=O)[O-])cc1[N+](=O)[O-])-c1ccccc1NC2c1ccc([N+](=O)[O-])cc1[N+](=O)[O-] (stereo not shown) [Compound 7g]
IC50 (EGFR^WT; [4]): 476.87 ± 0.022 nM

SMILES: N#Cc1nc2n(c1/N=C/c1ccc([N+](=O)[O-])cc1)-c1ccccc1NC2c1ccc([N+](=O)[O-])cc1 (stereo not shown) [Compound 7j]
IC50 (EGFR^WT): 193.18 ± 0.021 nM | IC50 [3]: 8.75 ± 0.028 µM | IC50 [1]: < 1 µM | IC50 [2]: 2.2 ± 0.026 µM

SMILES: N#Cc1nc2n(c1N)-c1ccccc1N1C(=O)CCC21 (stereo not shown) [Compound 11]
EGFR^WT inhibitory activity in words (EGFR^WT; EGFR wild type): poorly active or possessed no activity at all | IC50 (EGFR^WT; [4]): 669.39 ± 0.019 nM

SMILES: C#Cc1cccc(Nc2ncnc3cc(OCCOC)c(OCCOC)cc23)c1 [Erlotinib, erlotinib, reference compound]
IC50 [1]: 2.98 ± 0.023 µM | IC50 [2]: 3.33 ± 0.018 µM

Continued, in another order:

IC50 (EGFR^WT; [4]): > 720 nM
SMILES: COc1ccc(/C=N/c2c(C#N)nc3n2-c2ccccc2NC3c2ccc(OC)c(OC)c2)cc1OC (stereo not shown) [Compound 7a]

IC50 (EGFR^WT; [4]): > 720 nM
SMILES: N#Cc1nc2n(c1/N=C/c1ccccc1[N+](=O)[O-])-c1ccccc1NC2c1ccccc1[N+](=O)[O-] (stereo not shown) [Compound 7b]

IC50 (EGFR^WT; [4]): 620.17 ± 0.019 nM
SMILES: N#Cc1nc2n(c1/N=C/c1ccc(O)c(O)c1)-c1ccccc1NC2c1ccc(O)c(O)c1 (stereo not shown) [Compound 7c]

IC50 (EGFR^WT; [4]): 652.56 ± 0.024 nM
SMILES: COc1ccc(OC)c(/C=N/c2c(C#N)nc3n2-c2ccccc2NC3c2cc(OC)ccc2OC)c1 (stereo not shown) [Compound 7d]

IC50 (EGFR^WT; [4]): 665.89 ± 0.029 nM
SMILES: N#Cc1nc2n(c1/N=C/c1ccccc1Br)-c1ccccc1NC2c1ccccc1Br (stereo not shown) [Compound 7e]

IC50 (EGFR^WT; [4]): 232.4 ± 0.031 nM
SMILES: N#Cc1nc2n(c1/N=C/c1ccco1)-c1ccccc1NC2c1ccco1 (stereo not shown) [Compound 7f]

IC50 (EGFR^WT; [4]): 222.21 ± 0.028 nM | IC50 [3]: 4.09 ± 0.024 µM | IC50 [1]: < 1 µM | IC50 [2]: 11.2 ± 0.022 µM
SMILES: N#Cc1nc2n(c1/N=C/c1ccccc1F)-c1ccccc1NC2c1ccccc1F (stereo not shown) [Compound 7h]

IC50 (EGFR^WT; [4]): 613.37 ± 0.024 nM
SMILES: COc1cc(/C=N/c2c(C#N)nc3n2-c2ccccc2NC3c2cc(OC)c(OC)c(OC)c2)cc(OC)c1OC (stereo not shown) [Compound 7i]
EGFR^WT inhibitory activity in words (EGFR^WT; EGFR wild type): poorly active or possessed no activity at all

IC50 (EGFR^WT; [4]): > 720 nM | melting point: 173 to 175 °C
SMILES: N#Cc1ccc(/C=N/c2c(C#N)nc3n2-c2ccccc2NC3c2ccc(C#N)cc2)cc1 (stereo not shown) [Compound 7k, (E)-1-((4-Cyanobenzylidene)amino)-4-(4-cyanophenyl)-4,5-dihydroimidazo[1,2-a]quinoxaline-2-carbonitrile]
EGFR^WT inhibitory activity in words (EGFR^WT; EGFR wild type): poorly active or possessed no activity at all

IC50 (EGFR^WT; [4]): > 720 nM
SMILES: N#Cc1ccc(C2Nc3ccccc3-n3c2nc(C#N)c3N)cc1 (stereo not shown) [Compound 8a]

IC50 (EGFR^WT; [4]): > 720 nM
SMILES: N#Cc1nc2n(c1N)-c1ccccc1NC2c1cccc([N+](=O)[O-])c1 (stereo not shown) [Compound 8b]

IC50 (EGFR^WT; [4]): > 720 nM | melting point: 165 to 167 °C
SMILES: N#Cc1nc2n(c1N)-c1ccccc1NC2c1ccccc1[N+](=O)[O-] (stereo not shown) [Compound 8c, 1-Amino-4-(2-nitrophenyl)-4,5-dihydroimidazo[1,2-a]quinoxaline-2-carbonitrile]

IC50 (EGFR^WT; [4]): 223.32 ± 0.031 nM | IC50 [3]: 6.63 ± 0.031 µM | IC50 [1]: > 25 µM | IC50 [2]: 14.1 ± 0.021 µM
SMILES: C/C(=N\c1c(C#N)nc2n1-c1ccccc1NC2(C)c1ccc(Cl)cc1)c1ccc(Cl)cc1 (stereo not shown) [Compound 9a]

IC50 (EGFR^WT; [4]): 244.51 ± 0.021 nM
SMILES: C/C(=N\c1c(C#N)nc2n1-c1ccccc1NC2(C)c1cccs1)c1cccs1 (stereo not shown) [Compound 9b]

IC50 (EGFR^WT; [4]): 221.53 ± 0.028 nM | IC50 [3]: 12.06 ± 0.021 µM | IC50 [1]: 7.9 ± 0.027 µM | IC50 [2]: 13.6 ± 0.028 µM
SMILES: COc1ccc(/C(C)=N/c2c(C#N)nc3n2-c2ccccc2NC3(C)c2ccc(OC)c(OC)c2)cc1OC (stereo not shown) [Compound 9c]

IC50 (EGFR^WT; [4]): 247.32 ± 0.021 nM
SMILES: CC1(c2cccc([N+](=O)[O-])c2)Nc2ccccc2-n2c1nc(C#N)c2N (stereo not shown) [Compound 10a]

IC50 (EGFR^WT; [4]): 716.32 ± 0.026 nM
SMILES: N#Cc1nc2n(c1N)-c1ccccc1NC2(C(=O)c1ccccc1)c1ccccc1 (stereo not shown) [Compound 10c]

IC50 (EGFR^WT; [4]): 624.57 ± 0.024 nM
SMILES: CC1(C)Nc2ccccc2-n2c1nc(C#N)c2N [Compound 10d]
